Values joined by “and” are separate entries in the source; they are usually repeats but may differ in a detail not shown here. Equal values may be shown once. Numbers after ± are expanded uncertainties.
What was measured:
[1] = Liquid; for viscosity: Capillary tube (Ostwald / Ubbelohde) method
[2] = refractive index (Na D-line) (dimensionless); settings: 101.33 kPa, Liquid, Standard Abbe refractometry
[3] = refractive index (Na D-line) (dimensionless); xn = mol fraction of the nth substance listed; settings: 100.8 kPa, Liquid, Standard Abbe refractometry
[4] = xn = mol fraction of the nth substance listed; settings: Liquid; for viscosity: Capillary tube (Ostwald / Ubbelohde) method

CC(C)CC(C)(C)C [2,2,4-trimethylpentane]
[1], 100.8 kPa
Settings | mass density | viscosity [mPa·s]
288.15 K | 695.95 ± 0.31 kg/m3 | 0.537 ± 0.007
298.15 K | 687.74 ± 0.31 kg/m3 | 0.48 ± 0.007
308.15 K | 679.43 ± 0.32 kg/m3 and 679.41 ± 0.32 kg/m3 | 0.432 ± 0.007

[2]
Settings | refractive index
288.15 K | 1.39404 ± 0.00031
298.15 K | 1.389 ± 0.00031
308.15 K | 1.38395 ± 0.00031

CC(C)CC(C)(C)C [2,2,4-trimethylpentane] + CC(C)OC(C)C
[3], x2 = 0
Settings | refractive index
288.15 K | 1.39404 ± 0.00031
298.15 K | 1.389 ± 0.00031
308.15 K | 1.38395 ± 0.00031

[4], 100.8 kPa, x2 = 0
Settings | mass density [kg/m3] | viscosity [mPa·s]
288.15 K | 695.95 ± 0.31 | 0.537 ± 0.007
298.15 K | 687.74 ± 0.31 | 0.48 ± 0.007
308.15 K | 679.43 ± 0.32 | 0.432 ± 0.007

CC(C)OC(C)C [diisopropyl ether]
[1]
Settings | mass density, 288.15 K [kg/m3] | mass density, 298.15 K [kg/m3] | mass density, 308.15 K [kg/m3] | viscosity, 288.15 K [mPa·s] | viscosity, 298.15 K [mPa·s] | viscosity, 308.15 K [mPa·s]
100.5 kPa | 729.09 ± 0.3 | 718.7 ± 0.3 | 708.12 ± 0.31 | 0.348 ± 0.007 | 0.313 ± 0.006 | 0.283 ± 0.006
100.8 kPa | 729.09 ± 0.3 | 718.7 ± 0.3 | 708.12 ± 0.31 | 0.348 ± 0.007 | 0.313 ± 0.006 | 0.283 ± 0.006

[2]
Settings | refractive index
288.15 K | 1.37093 ± 0.00032
298.15 K | 1.36524 ± 0.00032
308.15 K | 1.35944 ± 0.00032

CCO [ethanol]
[1]
Settings | mass density, 288.15 K [kg/m3] | mass density, 298.15 K [kg/m3] | mass density, 308.15 K [kg/m3] | viscosity, 288.15 K [mPa·s] | viscosity, 298.15 K [mPa·s] | viscosity, 308.15 K [mPa·s]
100.5 kPa | 793.74 ± 0.23 | 785.17 ± 0.23 | 776.49 ± 0.24 | 1.309 ± 0.009 | 1.084 ± 0.009 | 0.905 ± 0.008
100.8 kPa | 793.74 ± 0.23 | 785.17 ± 0.23 | 776.49 ± 0.24 | 1.309 ± 0.011 | 1.084 ± 0.009 | 0.905 ± 0.008

[2]
Settings | refractive index
288.15 K | 1.36342 ± 0.00031
298.15 K | 1.35924 ± 0.00031
308.15 K | 1.35502 ± 0.00031

CCO [ethanol] + CC(C)CC(C)(C)C
[3], x1 = 1
Settings | refractive index
288.15 K | 1.36342 ± 0.00031
298.15 K | 1.35924 ± 0.00031
308.15 K | 1.35502 ± 0.00031

[4], 100.8 kPa, x1 = 1
Settings | mass density [kg/m3] | viscosity [mPa·s]
288.15 K | 793.74 ± 0.23 | 1.309 ± 0.011
298.15 K | 785.17 ± 0.23 | 1.084 ± 0.009
308.15 K | 776.49 ± 0.24 | 0.905 ± 0.008

CCO [ethanol] + CC(C)OC(C)C
[3], x2 = 0
Settings | refractive index
288.15 K | 1.36342 ± 0.00031
298.15 K | 1.35924 ± 0.00031
308.15 K | 1.35502 ± 0.00031

[4], 100.5 kPa, x2 = 0
Settings | mass density [kg/m3] | viscosity [mPa·s]
288.15 K | 793.74 ± 0.23 | 1.309 ± 0.009
298.15 K | 785.17 ± 0.23 | 1.084 ± 0.009
308.15 K | 776.49 ± 0.24 | 0.905 ± 0.008

Source: the NIST ThermoML archive (doi:10.1021/je050367p)
